Measurements reported in US9650405B2, “Modified sophorolipids as oil solubilizing agents” (Polytechnic Institute of New York University, priority 2010, dated 2017).
Where two headings read alike, the source gives them in different places.

How the values were obtained:
[1] = Solubility of MSLs in water
Excerpt: If the material precipitates upon cooling or was to some extent insoluble, the insoluble material was separated by filtration, dried and weighed.

[2] = Solubility in distilled water without additives, compounds alone and mixed; conditions: without any additives
[3] = SL-esters; from earlier publication in Colloids and surfaces, 2004, 240, 75; cited from earlier work
[4] = Emulsion type: dilution test and oil soluble dye staining; assay type: physicochemical; conditions: for emulsion type by Oil Red O staining: 2%-by-weight relative to water phase, oil/water 5/5 and 7/3
Experimental: In this test the emulsion is diluted either with oil (O) or water (W). If the emulsion is O/W type and it is diluted with water, it will remain stable as water is the dispersion medium. However, if the emulsion is O/W type and it is diluted with oil, the emulsion will break as oil and water are not miscible with each other. […] Emulsions of the O/W type have separated layers after dilution with pure oil but form a homogenous phase when diluted by water. Unless otherwise specified, the emulsion type formed by MSLs were oil in water.
In FIG. 13B, the tube on the left was diluted with 1 mL of oil whereas the tube on right was diluted with water. Visual observation of the tubes in FIG. 13B supports that the emulsions formed are indeed O/W emulsions.
Oil Red O was applied as an oil soluble dye and emerald green as water soluble dye in the process of emulsion preparation. Observations of emulsions were made before and after staining under optical microscope at 400× magnification (FIG. 14). […] The formation of O/W emulsions and not W/O emulsions with this set of MSL compounds would not be obvious to one skilled in the art. We believe that O/W emulsions are formed by this set of MSLs due to that large sophorose polar head groups requires relatively more space than the lipid tails and, therefore self-assemble into spherical type structures where disaccharide groups are locating outside the droplets.

[5] = Crude oil clearing/displacement activity; conditions: 20 μL of 1 mg/mL solution
Experimental: Oil cleaning assays were performed using Louisiana Crude, Arabian Light Crude, and Prudhoe Bay Crude as the oil phase. In one study, the oil clearing/displacement activity of MSLs were assessed using a crude oil layer on top of sea water in order to simulate oil spill type conditions. Sea water (20 mL) was transferred to plastic Petri dishes and 20 μL of a crude oil type was added on top of the water to create an oil layer. Subsequently, a 20 μL aliquot of MSL solution (1 mg/mL) was added dropwise to the top of the oil layer. The instantaneous formation of an oil clearing zone as well as the diameter of the clearing zone was determined as a function of the dispersant used. […] Furthermore, the oil displacement activity of SL-ethyl ester and SL-butyl ester was slightly higher than Triton-X-100 for Arabian Light crude.

[6] = Crude oil emulsification activity (turbidity at 610 nm); conditions: emulsifier 1 mg/mL
Experimental: Emulsification activity was assessed using Louisiana Crude, Arabian Light Crude, and Prudhoe Bay Crude as the oil phase. A 2 mL solution with emulsifier concentration of 1 mg/mL was prepared. A crude oil (10 mg) was added to the emulsifier aqueous solution, the mixture was vortexed for one minute and the emulsified mixture was allowed to stand for 20 minutes. Emulsification activity was determined by measuring turbidity of the emulsion mixture in a spectrophotometer at 610 nm. The results obtained using SL-ethyl ester, SL-butyl ester, the natural sophorolipid mixture and Triton X-100 as emulsifiers are expressed as D610 and are listed in Table 8. […] Furthermore, a remarkable improvement in emulsification activity was obtained for SL-butyl ester relative to the natural sophorolipid mixture. These comparative results for emulsification of Louisiana Crude, Arabian Light Crude, and Prudhoe Bay Crude oil phase could not be anticipated by one skilled in the art.

[7] = Emulsion stability based on phase separation; assay type: physicochemical; conditions: for emulsion layer percentage: paraffin oil/water 5/5, 2%-by-weight emulsifier, after 24 hours at 25° C.
Experimental: The emulsion was obtained by homogenizing the oil and water mixture and was allowed to settle at room temperature for 24 hours. […] Then, this mixture was homogenized at 13,000 rpm for 2 minutes. Thereafter, the resulting emulsion was left unagitated at 25° C. for 24 hours. Surfactants which give a larger emulsion phase are denoted as having higher emulsion effectiveness (Process Safety and Environment protection, 2005, 83, 38-46). […] Thus, unexpectedly, that longer alkyl chains, at least up to butyl and hexyl, provided improved interfacial stability at the paraffin oil/water interface. […] Apparently, ester bonds of SL-esters are less disruptive to organization at the oil water interface than amide bonds of SL-amides. […] The acidic SL (3) gave an 8% emulsion layer, much lower than the MSL examples given herein. Similarly, the natural SL (1) mixture gave a 10% emulsion layer. This performance is also far below that of SL-butyl amide (24), hexyl amide (25), butyl ester (8) and hexyl ester (16).
After homogenized at 13,000 rpm for 2 minutes, the emulsions were kept at room temperature and separation of the respective oil, emulsion and water layers was recorded for up to 1 month.

[8] = Emulsion droplet size distribution, Coulter LS 230 analyzer; assay type: physicochemical; conditions: paraffin oil-to-water 7:3 v/v, 25° C.
Experimental: Emulsified oil droplet size (average and standard deviation) was measured after suitable dilution of the emulsion phase using a Coulter LS 230 analyzer. […] Relative to natural and lactonic SL, selected MSLs show improved properties as emulsifiers on paraffin oil.
After being aged for 3-months, emulsified oil droplet size (average and standard deviation) was measured after suitable dilution of the emulsion phase using a Coulter LS 230 analyzer and the results are listed in Table 5. […] However, increasing the surfactant concentration from 1 to 2% did result in substantially smaller emulsion-phase droplet sizes. […] This is evidence that MSL's can stabilize oil phases greatly decreasing their tendency to undergo coalescence. […] It follows that the results of 3-month aging studies support the utility of selected MSLs for formation and stabilization of oil-in-water emulsions of paraffin oil phases. One skilled in the art would expect that the ability of these MSLs to stabilize paraffin oil phases teaches that they would also stabilize oil phases of similar structure.

[9] = Surface tension versus surfactant concentration: CMC and minimum surface tension; assay type: physicochemical; conditions: SL-amides; 25° C.
Experimental: The surface tension change with the increase of surfactant concentration of a series of SL amides was measured at 25° C. and the results are shown in Table 2. CMC and minimum surface tension (MST) decrease as the chain length of the n-alkyl amide moiety increase. […] This trend can be explained by the increased hydrophobicity of the surfactant hydrophobic tail with increased chain length of the n-alkyl amide.
The relation of CMC within a homologous series of surfactants and the carbon chain length (straight-chain), n, is usually described as: Log (CMC)=A−Bn (1)
Where A and B are constants specific to the series and n is the carbon on the hydrophobic chains. It was reported that the CMC of alkyl-β-D-glucoside decreased by ⅓ for each additional CH2 group (L. Zhang. D.E.S. Thesis, Columbia University). For a series of SL-esters prepared from n-alkanols of varying chain length, the CMC decreased by ½ per additional CH2 group (L. Zhang Colloid Surface, 240, 2004, 75).

[10] = Emulsion viscosity measurement; assay type: physicochemical; conditions: oil/water 7/3, 1% MSL, shear rate 1 S^−1
Experimental: Viscosity was measured at 25° C. with increasing shear rate from 1 S^−1 to 750 S^−1. The viscosity change was monitored for aging times up to 3 months. For all samples, the paraffin oil/water ratio is 7/3 and the surfactant concentrations studied were 0.5%, 1% to 2%-by-weight relative to the oil phase. FIG. 19 presents the viscosity change with shear rate for different aging times. […] The emulsion tested was prepared using 2%-by-weight SL-butyl ester relative to paraffin oil. Viscosity decreases with increased shear rate implying the emulsion follows shear shinning. Furthermore, viscosity decreased with increased storage time. […] This change is consistent with the small increase in oil phase particle size (1.7 to 2.1 μm) with aging from 1 day to 3-months (Tables 4 and 5).
Values of ηlow decreased with storage time to various extents that are dependent on the MSL compound used to stabilize the emulsion. […] The relative ability of different MSL structures to stabilize emulsions and thereby decrease the extent of decrease in viscosity as a function of aging time would not be predictable by one skilled in the art. The behavior as a function of MSL structure is related to emulsion dispersed phase droplet size. That is, the smaller the change in droplet size, the less decrease in emulsion viscosity occurs with increased aging time. Smaller changes in droplet size reflects the ability of the emulsifier to better stabilize particles. For example, the viscosity of the emulsion stabilized by SL-butyl amide decreased by 65% (from 344 Pas to 120 Pas) whereas the viscosity of the emulsion stabilized by SL-hexyl ester decreased by 20% (from 457 Pas to […]).
The viscosity was measured 24 hours after emulsion preparation. The viscosity increased with increasing surfactant concentration. Such behavior could not have been predicted by one skilled in the art without the teaching provided in this disclosure. The extent of viscosity change with surfactant concentration is related to the interfacial free energy at the droplet surface that reduces with the increase of surfactant concentration.

[11] = Arabian Light Crude on sea water

Row | SMILES | Solubility [1] [µg/mL] | solubility in distilled water [2] | CMC Range [3] | MST (minimum surface tension) [3] [mN/m] | emulsion type by Oil Red O staining [4] | Oil displacement activity (diameter of the clearing zone) [5, 11] [cm] | Oil displacement activity (diameter of the clearing zone) ([5]; Louisiana Crude on sea water) [cm] | Oil displacement activity (diameter of the clearing zone) ([5]; Prudhoe Bay Crude on sea water) [cm] | emulsion layer percentage [7] | Solubility ([1]; distilled water, 25° C.) [µg/mL] | Average droplet size ([8]; 0.5 weight %, 24 hours) [μm] | Average droplet size ([8]; 0.5 weight %, aged 3-months) [μm] | Average droplet size ([8]; 1 weight %, 24 hours) [μm] | Average droplet size ([8]; 1 weight %, aged 3-months) [μm] | Average droplet size ([8]; 2 weight %, 24 hours) [μm] | Average droplet size ([8]; 2 weight %, aged 3-months) [μm] | CMC Range [9] | MST (minimum surface tension) [9] [mN/m] | also measured
1 | CCOC(=O)CCCCCCCC=CCCCCCCC(C)OC1OC(CO)C(O)C(O)C1OC1OC(CO)C(O)C(O)C1O (stereo not drawn) [Compound 7, SL-Ethyl Ester] | <3000 | less than 1 mg/L | 36-40 10^−6M | 37.5 | O/W | 6.5 ± 0.2 | 6.3 ± 0.9 | 6.6 ± 0.7 | no emulsion layer was observed | – | – | – | – | – | – | – | – | – | Emulsification activity (D610) ([6]; Arabian Crude): 0.91; Emulsification activity (D610) ([6]; Louisiana Crude): 0.42; Emulsification activity (D610) ([6]; Prudhoe Crude): 0.32
2 | CCCCCCNC(=O)CCCCCCCC=CCCCCCCC(C)OC1OC(CO)C(O)C(O)C1OC1OC(CO)C(O)C(O)C1O (stereo not drawn) [Compound 25, SL-Hexyl Amide] | – | – | – | – | O/W | – | – | – | 60% | <11000 | 2.7 ± 0.4 | 4.0 ± 0.4 | 2.7 ± 0.2 | 3.7 ± 0.7 | 1.7 ± 0.1 | 2.2 ± 0.5 | 29-32 10^−6M | 36.5 | emulsion type by dilution test ([4]; 2 weight % emulsifier, water/oil ratio 5/5, paraffin): O/W emulsions; emulsion layer volume-%, one month ([7]; oil/water 5/5, 2%-by-weight, one month at room temperature): 10%; emulsion layer volume-%, start ([7]; oil/water 5/5, 2%-by-weight, start of aging): 65%
3 | CNC(=O)CCCCCCCC=CCCCCCCC(C)OC1OC(CO)C(O)C(O)C1OC1OC(CO)C(O)C(O)C1O (stereo not drawn) [Compound 22, SL-Methyl Amide] | – | – | – | – | O/W | – | – | – | no emulsion layer was observed | – | – | – | – | – | – | – | 650-670 10^−6M | 43.3 | –
4 | CCCCNC(=O)CCCCCCCC=CCCCCCCC(C)OC1OC(CO)C(O)C(O)C1OC1OC(CO)C(O)C(O)C1O (stereo not drawn) [Compound 24, SL-Butyl Amide] | >40000 | – | – | – | O/W | – | – | – | 20% | – | 3.0 ± 0.2 | 6.3 ± 1.0 | 2.5 ± 0.2 | 4.7 ± 0.8 | 1.9 ± 0.1 | 3.0 ± 0.4 | 45-50 10^−6M | 38.7 | low shear emulsion viscosity, after aging period [10]: 120 Pas; low shear emulsion viscosity, before aging [10]: 344 Pas; viscosity decrease over the aging period [10]: 65%; emulsion layer in 3 days ([7]; oil/water 5/5, 2%-by-weight, 3 days): not observed in 3 days
5 | CCNC(=O)CCCCCCCC=CCCCCCCC(C)OC1OC(CO)C(O)C(O)C1OC1OC(CO)C(O)C(O)C1O (stereo not drawn) [Compound 23, SL-Ethyl Amide] | >40000 | – | – | – | O/W | – | – | – | no emulsion layer was observed | – | – | – | – | – | – | – | 300-310 10^−6M | 40.9 | –
6 | COC(=O)CCCCCCCC=CCCCCCCC(C)OC1OC(CO)C(O)C(O)C1OC1OC(CO)C(O)C(O)C1O (stereo not drawn) [Compound 6, SL-Methyl Ester] | – | less than 1 mg/L | 95-100 10^−6M | 38.4 | O/W | 5.5 ± 0.1 | 6.5 ± 0.4 | 6.9 ± 0.1 | no emulsion layer was observed | <1000 | – | – | – | – | – | – | – | – | Solubility ([1]; distilled water, 25° C., listed as methyl ester): < 1000 µg/mL
